The target in data set [1] is BAF3-T315I cells (Ba/F3 cell line stably expressing BCR/ABL T315I) (Homo sapiens, UniProt P00519, T315I, cells depend on it). The experiment in a line: tumor cell proliferation, MTT or CCK8 assay, 72 h incubation. It counts as cell-based, mice. On the technique in general: Formazan colour is commonly taken as a measure of viable cells.
Data set [2] deals with K562R cells (imatinib-resistant cell line). The data set is described as above. It counts as cell-based. The conditions noted are these: Homo sapiens, K-562R, read-out: IC50 on tumor cell proliferation, K562R cells.
The test system of data set [3] is K562 (human chronic myelogenous leukemia cell line). The data set is described as above. It counts as cell-based. The settings on record: K562, 72 h, read-out: IC50 on tumor cell proliferation, K562. The essentials:
(§1)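 Leukemia cell lines were exposed to compounds at 1×10^−10˜1×10^−5M for 72 h. Proliferation was read by MTT (570 nm) or CCK8 (450/650 nm) after a further 4 h incubation. IC50 values were calculated from inhibition of proliferation.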

In data set [4] the test system is L78 (Lung cancer cell line). The data set is described as above. It counts as cell-based. The conditions noted are these: Homo sapiens, read-out: IC50 on tumor cell proliferation, L78.
The subject of a further data set is U937 Cell line. The data set is described as above. The data set is classed as cell-based. The conditions noted are these: Homo sapiens, read-out: IC50 on tumor cell proliferation, U937. In short, it runs like this: as §1
Data set [5] deals with MOLT-4 (Human acute lymphoblastic leukemia cell line). Described as above. It counts as cell-based. The conditions noted are these: MOLT-4, 72 h, read-out: IC50 on tumor cell proliferation, MOLT-4. In short, it runs like this: as §1
In data set [6] the test system is MEG-01 (Human megakaryoblastic leukaemia cell line). Described as above. The settings on record: MEG-01, 72 h, read-out: IC50 on tumor cell proliferation, MEG-01. It counts as cell-based. In short, it runs like this: as §1
Data set [7] can be described thus: Pharmacokinetics and bioavailability in rats. It counts as in vivo. The settings on record: SD rats; for pharmacokinetics parameters, overall judgement: corresponding pharmaceutical acceptable salt forms; for bioavailability / BA(% Oral bioavailability): calculated according to AUC data, PO vs IV; for bioavailability: read-out: BA(% Oral bioavailability). In short, it runs like this:
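Rats dosed, heparinized blood sampled at set times, plasma stored at -20 °C, acetonitrile-precipitated and analyzed by HPLC-MS. Compartmental and non-compartmental parameters derived; bioavailability from AUC.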

The subject of data set [8] is Ba/F3-Bcr/ABL-T315I cells. The experiment in a line: Xenograft model of BAF3-T315I in SCID nude mice, oral dosing. On the procedure: When the mean tumor volume reached 300-500 mm^3, mice were grouped and administered orally. […] Tumor volume and body weight were monitored once every 2 days (In each group, the tumor volume and body weight at beginning of the day were recorded). Tumor volume was calculated as π/6*a*b*b.L×W2/2 (a and b are the length and width of the tumor, respectively). […] The results were shown in Drawings as FIG. 9, 10, 11, 12, 13, 14, 15, 16.

Data set [9] deals with K562 cells (human CML cell line expressing native Bcr-Abl). The data set can be described thus: Xenograft model of K562 in nude mice, oral dosing. On the procedure:
Tumor volume and body weight were monitored once every 2 days (In each group, the tumor volume and body weight at beginning of the day were recorded). Tumor volume was calculated as […]*a*b*b.L×W2/2 (a and b are the length and width of the tumor, respectively). […] The results were shown in Drawings as FIGS. 1, 2, 3, 4, 5, 6, 7 and 8.

The mark [10] stands for this setting: read-out: IC50 on tumor cell proliferation, BAF3-T315I cells; Ba/F3 expressing BCR/ABL T315I, 72 h, Table 1.
Setting [11] is: 20 mg/kg po, q2d or qd (Example 51).
Setting [12] is: both sexes, Sprague-Dawley, rat, plasma, iv, 5 mg/kg, IV 5 mg/kg.
The mark [13] stands for this setting: both sexes, Sprague-Dawley, rat, plasma, iv, 5 mg/kg, IV 5 mg/kg, read-out: Cmax.
Setting [14] is: both sexes, Sprague-Dawley, rat, plasma, iv, 5 mg/kg, IV 5 mg/kg, read-out: Tmax.
Where [15] appears, read: both sexes, Sprague-Dawley, rat, plasma, po, 25 mg/kg, PO 25 mg/kg.
The mark [16] stands for this setting: both sexes, Sprague-Dawley, rat, plasma, po, 25 mg/kg, PO 25 mg/kg, read-out: Cmax.
[17] abbreviates: both sexes, Sprague-Dawley, rat, plasma, po, 25 mg/kg, PO 25 mg/kg, read-out: Tmax.
Setting [18] is: both sexes, Sprague-Dawley, rat, plasma, po.
Setting [19] is: Ba/F3-Bcr/ABL-T315I xenograft, 25 mg/kg po, q2d or qd.
[20] abbreviates: both sexes, Sprague-Dawley, rat, plasma, iv, 10 mg/kg, IV 10 mg/kg.

We go through eight molecules from patent publication US8846671B2, “Heterocyclic alkynyl benzene compounds and medical compositions and uses thereof” (Guangzhou Institute of Biomedicine and Health, Chinese …, priority 2010, dated 2014).

Structures can show the parent of a compound that is named as a salt. Where two headings read alike, the source gives them in different places.

As to `Cc1cn(-c2cc(NC(=O)c3ccc(C)c(C#Cc4cnc(NC5CC5)nc4)c3)cc(C(F)(F)F)c2)cn1` [D747, 3-(2-(2-(cyclopropylamino)pyrimidin-5-yl)ethynyl)-4-methyl-N-(3-(4-methyl-1H-imidazol-1-yl)-5-(trifluoromethyl)phenyl)benzamide], the GI50 in [1] (setting [10]) was 99.7 nM. Further, the IC50 in data set [2] is 96 nM; in [3], 2.6 nM; in data set [4] it was 10600 nM; in the data set on U937 Cell line (U-937, 72 h) it was 11500 nM; in data set [5], over 10000 nM; in data set [6] it was 7540 nM. Further, the “pharmacokinetics parameters, overall judgement” value (“pharmacokinetics parameters” for short) in data set [7] was “adequate pharmacokinetics parameters”.
In the case of `Cc1cn(-c2cc(NC(=O)c3ccc(C)c(C#Cc4cnc5[nH]ncc5c4)c3)cc(C(C)(C)C)c2)cn1` [D968 mesylate, 3-(2-(1H-pyrazolo[3,4-b]pyridin-5-yl)ethynyl)-N-(3-tert-butyl-5-(4-methyl-1H-imidazol-1-yl)phenyl)-4-methylbenzamide mesylate], the “effect on tumor growth” value in data set [8] (setting [11]) is listed as “inhibit the tumor growth”.
On to `Cc1ccc(C(=O)Nc2ccc(CN3CCN(C)CC3)c(C(F)(F)F)c2)cc1C#Cc1cnc2ccnn2c1` [D856 dimesylate salt, 4-methyl-N-(4-((4-methylpiperazin-1-ylmethyl)-3-(trifluoromethyl)phenyl)-3-(2-(pyrazolo[1,5-a]pyrimidin-6-yl)ethynyl)benzamide dimesylate], for which the “effect on tumor growth” value in data set [8] (setting [11]) is “inhibit the tumor growth”. The AUC(0-inf) was found to be 8170 ng·h/mL in [7] (setting [12]) and 31800 ng·h/mL in data set [7] (setting [15]). The half-life in data set [7] (setting [12]) is 20 h; in [7] (setting [15]), 22.2 h. In addition, the Cmax turned out to be 934 ng/mL in data set [7] (setting [13]) and 900 ng/mL in data set [7] (setting [16]). Moreover, the Tmax is 0.033 h in data set [7] (setting [14]) and 6.5 h in data set [7] (setting [17]). Moreover, the bioavailability in data set [7] (setting [18]) was 78%.
For `Cc1cn(-c2cc(NC(=O)c3ccc(C)c(C#Cc4cnc(NC(C)C)nc4)c3)cc(C(F)(F)F)c2)cn1` [D752, 3-(2-(2-(isopropylamino)pyrimidin-5-yl)ethynyl)-4-methyl-N-(3-(4-methyl-1H-imidazol-1-yl)-5-(trifluoromethyl)phenyl)benzamide], the GI50 in data set [1] (setting [10]) was 1030 nM. For the same molecule, the IC50 was 840 nM in [2]; 3.48 nM in data set [3]; over 10000 nM in [4]; 8990 nM in the data set with U937 Cell line (U-937, 72 h); 12700 nM in [5]; 22600 nM in [6]. For the same molecule, the “pharmacokinetics parameters” value in data set [7] was “adequate pharmacokinetics parameters”.
As for `Cc1cn(-c2cc(NC(=O)c3ccc(C)c(C#Cc4cnc5[nH]ncc5c4)c3)cc(C(F)(F)F)c2)cn1` [D767, 3-(2-(1H-pyrazolo[3,4-b]pyridin-5-yl)ethynyl)-4-methyl-N-(3-(4-methyl-1H-imidazol-1-yl)-5-(trifluoromethyl)phenyl)benzamide], the GI50 in data set [1] (Ba/F3 expressing BCR/ABL T315I, 72 h, Table 1; read-out: IC50 on tumor cell proliferation, BAF3-T315I cells) stood at 4.24 nM. Besides, the IC50 in data set [2] (imatinib-resistant K562R) was 89 nM; in data set [3] (MTT or CCK8, nM), 0.208 nM; in [4] (MTT or CCK8, nM), 11.8 nM; in the data set on U937 Cell line (U-937, 72 h, MTT or CCK8, nM) it was over 100 nM; in data set [5] (MTT or CCK8, nM), over 100 nM; in data set [6] (MTT or CCK8, nM), over 100 nM. Also, in [7], the “pharmacokinetics parameters” value is listed as “adequate pharmacokinetics parameters”.
With `Cc1ccc(C(=O)Nc2ccc(CN3CCN(C)CC3)c(C(F)(F)F)c2)cc1C#Cc1cnc2[nH]ncc2c1` [D824 dimesylate salt, 3-(2-(1H-pyrazolo[3,4-b]pyridin-5-yl)ethynyl)-4-methyl-N-(4-((4-methylpiperazin-1-yl)methyl)-3-(trifluoromethyl)phenyl)benzamide dimesylate], the “effect on body weight” value in data set [8] (setting [19]) was “help the body weight gain”; in data set [9] (po, qd), “did not cause the body weight loss”. Also, the “effect on tumor growth” value was “almost completely suppressed the tumor growth” in data set [8] (setting [19]) and “completely inhibit the tumor growth” in data set [9] (5 mg/kg po qd). Moreover, the time of peak concentration (Tmax) in [7] (PO 25 mg/kg, dimesylate, 25 mg/kg) stood at 4.25 h; in [7] (setting [14]), 0.033 h. Besides, the AUC(0-inf) in data set [7] (setting [12]) worked out at 4300 ng·h/mL; in data set [7] (setting [15]) it was 12600 ng·h/mL. Besides, the half-life was 6.1 h in [7] (setting [12]) and 8.72 h in data set [7] (setting [15]). In addition, the Cmax was determined as 2240 ng/mL in data set [7] (setting [13]) and 775 ng/mL in data set [7] (setting [16]). Also, the bioavailability in data set [7] (setting [18]) is 58.7%.
Regarding `Cc1cn(-c2cc(NC(=O)c3ccc(C)c(C#Cc4cnc(NC5CC5)nc4)c3)cc(C(F)(F)F)c2)cn1` [D747 hydrochloride salt, 3-(2-(2-(cyclopropylamino)pyrimidin-5-yl)ethynyl)-4-methyl-N-(3-(4-methyl-1H-imidazol-1-yl)-5-(trifluoromethyl)phenyl)benzamide], the “effect on tumor growth” value in data set [9] (25 mg/kg po qd) is on record as “completely inhibit the tumor growth”. Moreover, the “anti-tumor effect compared with imatinib” value in data set [9] (po, qd) was “better anti-tumor effect than imatinib”. Also, in data set [9] (po, qd), the “effect on body weight” value is on record as “did not cause the body weight loss”. The “BA(% Oral bioavailability)” value in data set [7] is 35.3%. The AUC(0-inf) in [7] (setting [20]) was 285000 ng·h/mL; in [7] (setting [15]), 252000 ng·h/mL. Moreover, the half-life in data set [7] (setting [20]) was 71.8 h; in [7] (setting [15]), 48.7 h. For the same molecule, the Cmax turned out to be 49800 ng/mL in data set [7] (both sexes, Sprague-Dawley, rat, plasma, iv, 10 mg/kg, IV 10 mg/kg, read-out: Cmax) and 6200 ng/mL in data set [7] (setting [16]). Besides, the Tmax was found to be 0.033 h in [7] (both sexes, Sprague-Dawley, rat, plasma, iv, 10 mg/kg, IV 10 mg/kg, read-out: Tmax) and 4.5 h in data set [7] (setting [17]).
As for `Cc1cn(-c2cc(NC(=O)c3ccc(C)c(C#Cc4cnc5[nH]ncc5c4)c3)cc(C(F)(F)F)c2)cn1` [D767 mesylate salt, 3-(2-(1H-pyrazolo[3,4-b]pyridin-5-yl)ethynyl)-4-methyl-N-(3-(4-methyl-1H-imidazol-1-yl)-5-(trifluoromethyl)phenyl)benzamide], the “effect on tumor growth” value in data set [9] (25 mg/kg po qd) is listed as “completely inhibit the tumor growth”. Also, the “effect on body weight” value in [9] (po, qd) is given as “did not cause the body weight loss”. In addition, in data set [7] (IV 5 mg/kg), the Tmax worked out at 0.033 h. For the same molecule, in [7] (IV 5 mg/kg, 5 mg/kg), the “AUC(0-∞)” value was determined as 59222.45 ng·h/mL, the Cmax came to 14093.75 ng/mL and the T1/2 was found to be 4.471 h. Further, in [7] (PO 25 mg/kg, 25 mg/kg), the “AUC(0-∞)” value is 27850.615 ng·h/mL, the Cmax was determined as 2322.5 ng/mL, the T1/2 amounted to 5.949 h and the Tmax was 2.75 h. Moreover, in data set [7], the “BA(% Oral bioavailability)” value is reported as 9.4%.

What is called AUC(0-inf) is the area under the concentration-time curve extrapolated to infinity. As usually defined, the half-life is the time in which the quantity being followed falls by half. A lower half-life goes with rapid decline. As usually defined, the Cmax is the highest concentration seen after dosing. In general, Tmax refers to the time at which the peak concentration occurs. For orientation: bioavailability means dose-corrected exposure relative to a reference, in per cent.
